Test results taken from publication PMC10046369, “Low-Affinity/High-Selectivity Dopamine Transport Inhibition Sufficient to Rescue Cognitive Functions in the Aging Rat” (Biomolecules, 2023).

Columns and labels:
ALK(L1196M) = ALK(L1196M) (Homo sapiens, UniProt Q9UM73, L1196M); assay: biochemical; set-up: KINOMEscan competition binding panel, per cent of control; details: read-out: %Ctrl @ 2800nM
Protocol: (§1) A panel of binding assays covering 450 human kinases and disease-relevant mutations was performed by DiscoverX (KINOMEscan®, Freemont, CA, USA) according to the standard and validated protocol defined by the contractor. […] Kinase binding assays This study was outsourced to DiscoverX (KINOMEscan®, Freemont, CA, USA) and is compliant with the corresponding project BUY004-01-p-00001. […] Results are reported as percent control (% Ctrl), where lower numbers indicate stronger hits in the matrix on the following page(s). %Ctrl calculation: ((test compound signal-positive control signal) / (negative control signal – positive control signal)) x 100.

BMPR1A = BMPR1A (Homo sapiens, UniProt P36894); assay: biochemical; set-up: KINOMEscan competition binding panel, per cent of control; details: read-out: %Ctrl @ 2800nM
Protocol: as §1

CSNK2A1 = CSNK2A1 (Homo sapiens, UniProt P68400); assay: biochemical; set-up: KINOMEscan competition binding panel, per cent of control; details: read-out: %Ctrl @ 2800nM
Protocol: as §1

ERK3 = target: T1, ERK3 (Homo sapiens, UniProt Q16659); assay: biochemical; set-up: KINOMEscan competition binding panel, per cent of control; details: read-out: %Ctrl @ 2800nM
T1 construct: gene MAPK6
Protocol: as §1

FLT1 = FLT1 (Homo sapiens, UniProt P17948); assay: biochemical; set-up: KINOMEscan competition binding panel, per cent of control; details: read-out: %Ctrl @ 2800nM
Protocol: as §1

ITK = ITK (Homo sapiens, UniProt Q08881); assay: biochemical; set-up: KINOMEscan competition binding panel, per cent of control; details: read-out: %Ctrl @ 2800nM
Protocol: as §1

MAP4K4 = MAP4K4 (Homo sapiens, UniProt O95819); assay: biochemical; set-up: KINOMEscan competition binding panel, per cent of control; details: read-out: %Ctrl @ 2800nM
Protocol: as §1

MEK5 = target: T2, MEK5 (Homo sapiens, UniProt Q13163); assay: biochemical; set-up: KINOMEscan competition binding panel, per cent of control; details: read-out: %Ctrl @ 2800nM
T2 construct: gene MAP2K5
Protocol: as §1

PAK3 = PAK3 (Homo sapiens, UniProt O75914); assay: biochemical; set-up: KINOMEscan competition binding panel, per cent of control; details: read-out: %Ctrl @ 2800nM
Protocol: as §1

PAK6 = PAK6 (Homo sapiens, UniProt Q9NQU5); assay: biochemical; set-up: KINOMEscan competition binding panel, per cent of control; details: read-out: %Ctrl @ 2800nM
Protocol: as §1

PDGFRA = PDGFRA (Homo sapiens, UniProt P16234); assay: biochemical; set-up: KINOMEscan competition binding panel, per cent of control; details: read-out: %Ctrl @ 2800nM
Protocol: as §1

PFTK1 = target: T3, PFTK1 (Homo sapiens, UniProt O94921); assay: biochemical; set-up: KINOMEscan competition binding panel, per cent of control; details: read-out: %Ctrl @ 2800nM
T3 construct: gene CDK14
Protocol: as §1

PRKCE = PRKCE (Homo sapiens, UniProt Q02156); assay: biochemical; set-up: KINOMEscan competition binding panel, per cent of control; details: read-out: %Ctrl @ 2800nM
Protocol: as §1

[1] = target: T4, RPS6KA5(Kin.Dom.2-C-terminal) (Homo sapiens, UniProt O75582); assay: biochemical; set-up: KINOMEscan competition binding panel, per cent of control; details: read-out: %Ctrl @ 2800nM
T4 construct: Kin.Dom.2-C-terminal
Protocol: as §1

SBK1 = SBK1 (Homo sapiens, UniProt Q52WX2); assay: biochemical; set-up: KINOMEscan competition binding panel, per cent of control; details: read-out: %Ctrl @ 2800nM
Protocol: as §1

EP2 (h) = target: T5, EP2 (h) (Homo sapiens, UniProt P43116); assay: cell-based; set-up: functional GPCR antagonist screen (Eurofins Cerep), percent inhibition of control agonist response; details: antagonist effect, against control agonist; read-out: % Inhibition of Control Agonist Response, Mean
T5 construct: gene PTGER2

MC2 (h) = target: T6, MC2 (h) (Homo sapiens, UniProt Q01718); assay: cell-based; set-up: functional GPCR antagonist screen (Eurofins Cerep), percent inhibition of control agonist response; details: antagonist effect, against control agonist; read-out: % Inhibition of Control Agonist Response, Mean
T6 construct: gene MC2R

MRGX2 / MGRPLX2 (h) = target: T7, MRGX2 / MGRPLX2 (h) (Homo sapiens, UniProt Q96LB1); assay: cell-based; set-up: functional GPCR antagonist screen (Eurofins Cerep), percent inhibition of control agonist response; details: antagonist effect, against control agonist; read-out: % Inhibition of Control Agonist Response, Mean
T7 construct: gene MRGPRX2

MT1 (ML1A) (h) = target: T8, MT1 (ML1A) (h) (Homo sapiens, UniProt P48039); assay: cell-based; set-up: functional GPCR antagonist screen (Eurofins Cerep), percent inhibition of control agonist response; details: antagonist effect, against control agonist; read-out: % Inhibition of Control Agonist Response, Mean
T8 construct: gene MTNR1A

NK2 (h) = target: T9, NK2 (h) (Homo sapiens, UniProt P21452); assay: cell-based; set-up: functional GPCR antagonist screen (Eurofins Cerep), percent inhibition of control agonist response; details: antagonist effect, against control agonist; read-out: % Inhibition of Control Agonist Response, Mean
T9 construct: gene TACR2

OX1 (h) = target: T10, OX1 (h) (Homo sapiens, UniProt O43613); assay: cell-based; set-up: functional GPCR antagonist screen (Eurofins Cerep), percent inhibition of control agonist response; details: antagonist effect, against control agonist; read-out: % Inhibition of Control Agonist Response, Mean
T10 construct: gene HCRTR1

PTH1 (h) = target: T11, PTH1 (h) (Homo sapiens, UniProt Q03431); assay: cell-based; set-up: functional GPCR antagonist screen (Eurofins Cerep), percent inhibition of control agonist response; details: antagonist effect, against control agonist; read-out: % Inhibition of Control Agonist Response, Mean
T11 construct: gene PTH1R

S1P5 (h) = target: T12, S1P5 (h) (Homo sapiens, UniProt Q9H228); assay: cell-based; set-up: functional GPCR antagonist screen (Eurofins Cerep), percent inhibition of control agonist response; details: antagonist effect, against control agonist; read-out: % Inhibition of Control Agonist Response, Mean
T12 construct: gene S1PR5

motilin (h) = target: T13, motilin (h) (Homo sapiens, UniProt O43193); assay: cell-based; set-up: functional GPCR antagonist screen (Eurofins Cerep), percent inhibition of control agonist response; details: antagonist effect, against control agonist; read-out: % Inhibition of Control Agonist Response, Mean
T13 construct: gene MLNR

T10 sequence (O43613 whole entry): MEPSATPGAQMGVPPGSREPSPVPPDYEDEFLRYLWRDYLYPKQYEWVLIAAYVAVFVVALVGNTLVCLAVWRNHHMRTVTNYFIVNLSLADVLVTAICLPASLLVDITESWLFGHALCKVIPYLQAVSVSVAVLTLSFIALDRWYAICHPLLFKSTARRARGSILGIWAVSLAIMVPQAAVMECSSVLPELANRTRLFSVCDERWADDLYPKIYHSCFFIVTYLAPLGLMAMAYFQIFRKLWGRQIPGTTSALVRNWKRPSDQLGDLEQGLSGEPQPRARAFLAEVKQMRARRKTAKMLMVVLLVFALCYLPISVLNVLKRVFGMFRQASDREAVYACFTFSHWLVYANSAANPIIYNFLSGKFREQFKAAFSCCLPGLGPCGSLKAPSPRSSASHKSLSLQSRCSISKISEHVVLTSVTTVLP
T11 sequence (Q03431 whole entry): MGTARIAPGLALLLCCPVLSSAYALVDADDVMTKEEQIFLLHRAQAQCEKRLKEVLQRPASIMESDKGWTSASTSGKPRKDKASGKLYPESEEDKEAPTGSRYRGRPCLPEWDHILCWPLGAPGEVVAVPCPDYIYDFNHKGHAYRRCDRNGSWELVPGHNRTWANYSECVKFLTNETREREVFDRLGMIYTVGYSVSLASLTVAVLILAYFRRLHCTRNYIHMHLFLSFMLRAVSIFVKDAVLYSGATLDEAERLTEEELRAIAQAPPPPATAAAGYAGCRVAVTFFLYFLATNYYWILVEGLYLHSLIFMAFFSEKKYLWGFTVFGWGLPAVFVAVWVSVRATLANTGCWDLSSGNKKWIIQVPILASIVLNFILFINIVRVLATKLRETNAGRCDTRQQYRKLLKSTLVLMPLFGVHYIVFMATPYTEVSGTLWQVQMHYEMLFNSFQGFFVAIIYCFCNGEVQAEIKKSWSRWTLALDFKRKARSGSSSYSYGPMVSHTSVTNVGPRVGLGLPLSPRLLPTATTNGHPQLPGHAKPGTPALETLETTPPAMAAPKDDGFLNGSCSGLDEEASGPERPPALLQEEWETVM
FLT1, sequence (P17948 whole entry): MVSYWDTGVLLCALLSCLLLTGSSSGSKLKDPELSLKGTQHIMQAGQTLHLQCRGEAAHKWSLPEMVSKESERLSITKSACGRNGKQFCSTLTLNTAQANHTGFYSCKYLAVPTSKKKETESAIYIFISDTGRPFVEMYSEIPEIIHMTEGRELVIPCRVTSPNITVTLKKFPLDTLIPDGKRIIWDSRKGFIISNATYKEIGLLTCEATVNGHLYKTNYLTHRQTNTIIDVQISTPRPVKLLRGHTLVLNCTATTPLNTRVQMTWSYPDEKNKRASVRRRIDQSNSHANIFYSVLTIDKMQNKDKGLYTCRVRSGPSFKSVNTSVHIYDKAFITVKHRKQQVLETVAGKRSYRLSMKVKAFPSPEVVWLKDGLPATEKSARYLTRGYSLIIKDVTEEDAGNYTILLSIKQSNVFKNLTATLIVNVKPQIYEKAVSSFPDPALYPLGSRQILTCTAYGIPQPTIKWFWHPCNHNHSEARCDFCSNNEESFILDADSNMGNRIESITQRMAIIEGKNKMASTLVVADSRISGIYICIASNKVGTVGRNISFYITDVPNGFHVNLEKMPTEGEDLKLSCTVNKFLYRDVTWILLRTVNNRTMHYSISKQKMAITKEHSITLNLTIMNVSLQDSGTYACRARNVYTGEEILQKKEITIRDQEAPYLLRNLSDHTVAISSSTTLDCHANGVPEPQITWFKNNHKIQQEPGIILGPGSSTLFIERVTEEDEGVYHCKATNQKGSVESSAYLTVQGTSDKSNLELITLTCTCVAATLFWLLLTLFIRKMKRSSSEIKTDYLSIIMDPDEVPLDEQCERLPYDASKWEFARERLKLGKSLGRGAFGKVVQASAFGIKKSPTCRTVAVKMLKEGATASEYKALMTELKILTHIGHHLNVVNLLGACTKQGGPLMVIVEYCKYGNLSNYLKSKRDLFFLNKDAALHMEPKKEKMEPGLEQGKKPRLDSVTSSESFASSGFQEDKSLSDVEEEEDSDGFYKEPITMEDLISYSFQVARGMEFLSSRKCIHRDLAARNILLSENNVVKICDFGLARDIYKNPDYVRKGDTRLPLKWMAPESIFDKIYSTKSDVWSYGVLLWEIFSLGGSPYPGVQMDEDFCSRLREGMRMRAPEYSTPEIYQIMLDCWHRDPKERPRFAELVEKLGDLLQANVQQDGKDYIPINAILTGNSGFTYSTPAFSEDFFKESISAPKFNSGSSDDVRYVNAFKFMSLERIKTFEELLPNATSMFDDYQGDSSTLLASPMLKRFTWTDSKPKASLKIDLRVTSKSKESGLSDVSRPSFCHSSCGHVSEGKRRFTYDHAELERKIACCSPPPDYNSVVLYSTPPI
ITK, sequence (Q08881 whole entry): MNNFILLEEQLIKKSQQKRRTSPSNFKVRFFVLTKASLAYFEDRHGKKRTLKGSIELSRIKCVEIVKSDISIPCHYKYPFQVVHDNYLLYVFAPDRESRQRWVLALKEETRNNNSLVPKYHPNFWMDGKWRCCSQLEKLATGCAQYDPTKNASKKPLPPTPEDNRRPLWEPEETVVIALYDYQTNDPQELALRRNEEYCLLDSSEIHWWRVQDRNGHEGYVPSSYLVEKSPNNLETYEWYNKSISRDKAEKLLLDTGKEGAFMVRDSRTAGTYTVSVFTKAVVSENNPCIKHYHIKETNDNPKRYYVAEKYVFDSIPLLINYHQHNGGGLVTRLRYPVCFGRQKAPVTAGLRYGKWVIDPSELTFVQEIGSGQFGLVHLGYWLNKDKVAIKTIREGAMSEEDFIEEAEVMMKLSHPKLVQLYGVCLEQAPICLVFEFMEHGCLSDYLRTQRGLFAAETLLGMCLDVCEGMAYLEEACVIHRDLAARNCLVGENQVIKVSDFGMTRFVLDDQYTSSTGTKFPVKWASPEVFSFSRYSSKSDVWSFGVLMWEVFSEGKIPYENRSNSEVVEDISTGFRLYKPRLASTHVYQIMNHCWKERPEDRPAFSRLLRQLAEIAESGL
T4 sequence (O75582 whole entry): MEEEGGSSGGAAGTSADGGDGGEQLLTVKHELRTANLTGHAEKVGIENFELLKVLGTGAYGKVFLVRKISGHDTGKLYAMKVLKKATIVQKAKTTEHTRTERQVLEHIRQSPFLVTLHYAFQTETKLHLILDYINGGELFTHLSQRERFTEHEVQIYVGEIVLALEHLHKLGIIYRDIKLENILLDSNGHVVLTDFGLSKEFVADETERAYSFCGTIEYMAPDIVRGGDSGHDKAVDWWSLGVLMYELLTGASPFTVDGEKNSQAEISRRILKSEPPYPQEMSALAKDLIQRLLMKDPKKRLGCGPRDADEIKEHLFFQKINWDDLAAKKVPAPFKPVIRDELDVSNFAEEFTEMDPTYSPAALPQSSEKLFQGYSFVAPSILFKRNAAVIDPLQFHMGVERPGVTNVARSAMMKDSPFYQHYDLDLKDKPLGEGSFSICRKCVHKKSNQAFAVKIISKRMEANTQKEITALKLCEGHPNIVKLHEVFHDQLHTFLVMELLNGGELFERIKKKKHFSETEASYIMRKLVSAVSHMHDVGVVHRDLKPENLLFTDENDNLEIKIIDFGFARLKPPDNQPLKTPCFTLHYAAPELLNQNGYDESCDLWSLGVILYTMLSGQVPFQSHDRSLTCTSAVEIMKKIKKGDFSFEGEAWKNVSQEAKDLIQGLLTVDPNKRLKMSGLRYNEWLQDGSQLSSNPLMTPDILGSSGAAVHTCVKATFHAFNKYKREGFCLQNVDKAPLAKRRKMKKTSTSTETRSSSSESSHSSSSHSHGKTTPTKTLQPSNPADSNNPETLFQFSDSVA
CSNK2A1, sequence (P68400 whole entry): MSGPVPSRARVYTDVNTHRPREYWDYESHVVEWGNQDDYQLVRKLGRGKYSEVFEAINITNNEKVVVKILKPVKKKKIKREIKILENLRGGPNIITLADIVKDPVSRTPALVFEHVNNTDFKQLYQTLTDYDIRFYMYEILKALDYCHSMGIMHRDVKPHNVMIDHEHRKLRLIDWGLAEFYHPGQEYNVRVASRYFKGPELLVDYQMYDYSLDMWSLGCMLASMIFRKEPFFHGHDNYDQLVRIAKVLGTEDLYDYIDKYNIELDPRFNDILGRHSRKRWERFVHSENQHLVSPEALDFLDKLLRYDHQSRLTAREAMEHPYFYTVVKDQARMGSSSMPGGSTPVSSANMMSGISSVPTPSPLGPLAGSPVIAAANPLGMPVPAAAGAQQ
T5 sequence (P43116 whole entry): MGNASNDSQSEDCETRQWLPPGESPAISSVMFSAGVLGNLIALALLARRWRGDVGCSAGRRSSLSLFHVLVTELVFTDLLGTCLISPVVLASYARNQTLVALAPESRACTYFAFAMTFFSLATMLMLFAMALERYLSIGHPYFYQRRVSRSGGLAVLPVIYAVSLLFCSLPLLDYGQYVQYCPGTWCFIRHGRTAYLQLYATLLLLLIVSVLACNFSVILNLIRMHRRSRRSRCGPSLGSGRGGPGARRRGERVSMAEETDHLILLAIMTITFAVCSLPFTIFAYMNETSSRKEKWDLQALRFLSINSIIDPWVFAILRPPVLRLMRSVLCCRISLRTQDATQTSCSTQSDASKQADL
T12 sequence (Q9H228 whole entry): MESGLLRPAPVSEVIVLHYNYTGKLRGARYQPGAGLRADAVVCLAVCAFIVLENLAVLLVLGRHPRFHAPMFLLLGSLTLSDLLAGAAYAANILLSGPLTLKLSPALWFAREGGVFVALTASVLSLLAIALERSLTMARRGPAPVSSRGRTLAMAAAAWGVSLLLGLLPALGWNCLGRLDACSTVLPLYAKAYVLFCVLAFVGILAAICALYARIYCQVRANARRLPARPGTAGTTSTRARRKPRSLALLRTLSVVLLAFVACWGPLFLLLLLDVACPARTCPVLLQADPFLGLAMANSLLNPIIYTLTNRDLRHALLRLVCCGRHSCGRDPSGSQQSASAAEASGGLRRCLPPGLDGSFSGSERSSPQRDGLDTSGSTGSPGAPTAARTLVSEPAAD

Compound: [O-][S@@+](Cc1cncs1)C(c1ccccc1)c1ccccc1 [S-CE-123, (S)-5-((Benzhydrylsulfinyl)Methyl)Thiazole]
- remaining binding at 2.8 µM (ALK(L1196M)): 100%
- remaining binding at 2.8 µM (BMPR1A): 100%
- remaining binding at 2.8 µM (CSNK2A1): 88%
- remaining binding at 2.8 µM (ERK3): 93%
- remaining binding at 2.8 µM (FLT1): 100%
- remaining binding at 2.8 µM (ITK): 100%
- remaining binding at 2.8 µM (MAP4K4): 100%
- remaining binding at 2.8 µM (MEK5): 98%
- remaining binding at 2.8 µM (PAK3): 70%
- remaining binding at 2.8 µM (PAK6): 100%
- remaining binding at 2.8 µM (PDGFRA): 98%
- remaining binding at 2.8 µM (PFTK1): 92%
- remaining binding at 2.8 µM (PRKCE): 100%
- remaining binding at 2.8 µM [1]: 85%
- remaining binding at 2.8 µM (SBK1): 100%
- inhibition at 2.8 µM (EP2 (h)): 0.7%
- inhibition at 2.8 µM (MC2 (h)): 3.1%
- inhibition at 2.8 µM (MRGX2 / MGRPLX2 (h)): 7.1%
- inhibition at 2.8 µM (MT1 (ML1A) (h)): 7.6%
- inhibition at 2.8 µM (NK2 (h)): -0.8%
- inhibition at 2.8 µM (OX1 (h)): -14.5%
- inhibition at 2.8 µM (PTH1 (h)): -10.6%
- inhibition at 2.8 µM (S1P5 (h)): 3.7%
- inhibition at 2.8 µM (motilin (h)): -5.2%
